# Experimental data taken from patent publication US20260166113A1, “COMPOSITIONS AND METHODS FOR TREATING RENAL CANCER” (The Regents of the University of Michigan, priority 2022, published 2026).
# “Also recorded” adds a separate entry of the source.
# Assays:
# [1] = test system: 5 RCC cell lines (786-0, 769-P, A-498, Caki-1, Caki-2); test: Kinase inhibition, DIA-MS phosphoproteome of treated RCC cell lines; type: cell-based; details: treated at calculated IC50 for 1.5 hours; for phosphorylation of signaling-related downstream substrates: DIA-MS
# Method: For in vitro experiments assessing the impact of select kinase inhibition on renal cancer cell models (786-0, 769-P, A-498, Caki-1, and Caki-2), the kinase inhibitors, Adaversotib, Everolimus, Sapanisterib, Gefitinib, and Trametinib were dissolved in dimethyl sulfoxide (DMSO) and subjected to sonication in a water bath at room temperature. Following an assessment of individual cell line growth rates to enable calculation of half maximal inhibitory concentration (IC50), cells were seeded in triplicate at concentrations of either 1,000 cells/well (786-0, 769-P, A-498, Caki-2) or 10,000 cells/well (Caki-1). Post-24 hour seeding, cells were subjected to kinase inhibitors at final concentrations of 1 nm, 10 nM, 50 nM, 100 nM, 500 nM, […], with non-treated cells and DMSO treated cells included as controls. Cell growth was measured on day 1 (kinase inhibitor treatment), day 4, and day 6 using the colorimetric CellTiter 96® Aqueous One Cell Proliferation Solution Assay (MTS) following the manufacturer's instructions. IC50 for each cell line in response to single kinase inhibitor exposure was determined by plotting inhibitor concentration against percent activity relative to DMSO-treated controls and calculating the x-intercept of the linear logarithmic trend line. For phosphoproteomic characterization of renal cell models treated with individual kinase inhibitors, six treatment conditions were devised—control, Adaversotib treatment, Everolimus treatment, Sapanisterib treatment, Gefitinib treatment, and Trametinib treatment—and cells were seeded at ˜5E6 cells/15 cm plate and allowed to reach ˜80% confluency. 30 minutes prior to kinase inhibitor treatment, fresh media was exchanged. Cells were then treated with kinase inhibitors at calculated IC50 values for 1.5 hours. Media was removed and cells were three times with a volume of ice-cold PBS. Cells were scraped using 1.5 mL of ice-cold PBS, transferred to Eppendorf tubes, and spun at 3,000×g for 5 minutes at 4° C. A volume of lysis buffer (8 M urea, 75 mM NaCl, 50 mM Tris, pH 8.0, 1 mM EDTA, […] aprotinin, […] leupeptin, 1 mM PMSF, 10 mM NaF, Phosphatase Inhibitor Cocktail 2 and Phosphatase Inhibitor Cocktail 3 [1:100 dilution], and 20 mM PUGNAc) was added and cells lysed. Subsequent sample preparation and ESI-LC-MS/MS analysis for global proteomic and phosphoproteomic characterization for DIA analysis were performed as described for tissue samples.
# Analysis of the DIA data from the kinase inhibitor study (whole proteome and phosphopeptide enriched data) was performed as described above. For each data type, the libraries were built from the corresponding 30 DIA runs (6 treatments x 5 cell lines) supplemented with 8 or 9 fractionated DDA files for whole proteome and phosphopeptide-enriched samples, respectively. The resulting whole proteome spectral library contained 8882 proteins and 173932 precursors; the phosphopeptide enriched sample library contained 7841 proteins and 101491 precursors (including non-phosphorylated proteins and peptides). After DIA-NN quantification, the final quantification table for the phosphopeptide-enriched dataset contained quantification information for 46577 phosphorylated peptides forms, representing 22161 peptide sequences from 5154 proteins. The whole proteome dataset table contained quantification for 7654 genes.
# ccRCC cell line Caki-1 = test: In vitro drug treatment and growth inhibition assessment (AlamarBlue cell viability); type: cell-based; details: 1, 5, 25 μM, treatment 7 days, FIG. 18J
# Method: (§1) The ccRCC cell line Caki-1 and a control cell line HK-2 were maintained in Dulbecco's Modified Eagle Medium/Nutrient Mixture F-12 (DMEM/F-12) culture medium (Gibco-11320033) supplemented with 10% FBS (Sigma, F-9665) and 1% Pen Strep (Gibco, 10,000 U/mL-15140122). All cell lines were seeded at 50,000 cells/well in duplicates in 24-well plates at day 0 and were treated with either UCHL1 inhibitor (CAS 668467-91-2-Calbiochem, Sigma Aldrich-662086-10 MG) or GLUL inhibitor (L-Methionine sulfoximine, Sigma Aldrich-M5379-500 MG) upon reaching 50-60% confluency at day 3 in culture. For both UCH-L1inhibitor or GLUL inhibitor treatment, the working concentrations were used at 1 μM, 5 μM, and 25 μM. Treatment was maintained in culture for a total of 7 days and growth inhibition assessment was performed using AlamarBlueTM Cell Viability Reagent (Invitrogen-DAL1025) at a ratio of 1:10 for 4 hours according to the manufacturer's protocol. Plots and IC50 concentrations were produced in Prism GraphPad (version 9.2.0) by plotting the percent growth inhibition on the y-axis and the Log (concentration) on the x-axis. The corresponding IC50 was extracted from the nonlinear regression curve fitting analysis using Prism GraphPad. Cells treated with only a growth medium without any drugs were used as negative controls.
# [2] = test system: normal kidney HK-2 cell line; test: as above; type: cell-based; details: HK-2 normal kidney control; 1, 5, 25 μM; treatment 7 days
# Method: as §1
# 786-O renal cancer cells [3] = test: CellTiter-Glo Luminescent Cell Viability Assay; type: cell-based; details: increasing concentrations for a week, FIG. 18J
# Method: (§2) 786-O cells were maintained in Gibco RPMI-1640 supplemented with 10% FBS. CAS 668467-91-2 (UCHL-1 inhibitor) was purchased from Sigma-Aldrich (L4170) and its impact on cell viability was evaluated. Briefly, 2000 cells were seeded on white flat bottom 96 well plates and were treated with increasing concentrations of the inhibitor for a week. CellTiter-Glo Luminescent Cell Viability Assay (Promega) was used to assess cell viability and IC-50 was calculated using a graph pad. Impact of UCHL-1 inhibitor on cell morphology was evaluated using IncuCyte ZOOM assay. For western blot analysis, cell lysates were harvested from control and UCHL-1 treated 786-O cells. Following protein quantification, lysates were resolved in NuPAGE Bis-Tris Protein Gel (ThermoFisher Scientific), transferred on to nitrocellulose membranes, blocked with 5% milk, and incubated overnight with UCHL-1 antibody (HPA005993, Sigma-Aldrich). Following day, membranes were washed with TBST buffer, incubated with HRP-conjugated secondary antibodies, washed, and imaged using Odyssey Fc imager (LiCOR Biosciences).
# 786-O renal cancer cells [4] = test: Cell morphology by IncuCyte ZOOM assay; type: cell-based; details: 30 μM, 24 hr, FIG. 18K
# Method: as §2
# [5] = test system: Akt signaling pathway in 786-O cells; test: Western blot analysis of Akt signaling; type: cell-based; details: FIG. 18L
# Method: as §2
# [6] = test system: metastatic papillary RCC cell line ACHN1; test: Cell viability by CellTiter-Glo assay; type: cell-based; details: 120 hrs incubation; for effect on cell viability: FIG. 23D
# Method: (§3) The cell viability was determined by CellTiter-Glo assays (Promega). Cells were seeded in 96-well plates (3000 cells per well) in respective culture medium. After 24 hrs incubation, a serial dilution of compounds was added into plates with six replications for each dose. After 120 hrs incubation, the CellTiter-Glo assays were performed based on the manufacturer's instruction to analyze cell proliferation rates. The bioluminescence signal was acquired by the Infinite M1000 Pro plate reader (Tecan). The data were analyzed by GraphPad Prism software (GraphPad Software).
# [7] = test system: neuroblastoma cell line NB1 (NB-1); test: Cell viability by CellTiter-Glo assay; type: cell-based
# Method: as §3
# skrc42.EV = details: FIG. 21G
# Method: as §1
# metastatic RCC = details: everolimus versus sunitinib; literature ref 85; cited from earlier work
smiles,measurement,setting,value
C=CCn1c(=O)c2cnc(Nc3ccc(N4CCN(C)CC4)cc3)nc2n1-c1cccc(C(C)(C)O)n1 [AZD-1775],response among the five kinase inhibitors (phosphorylation of downstream targeted substrates),[1],showed better responses
same,phosphorylation of signaling-related downstream substrates,[1],reduced CDK1 phosphorylation levels in all five cell lines
CC(=O)ON=C1C(=O)N(Cc2cc(Cl)ccc2Cl)c2ccc(Cl)cc21 [CAS 668467-91-2],inhibition of cell viability,ccRCC cell line Caki-1,dose-dependent inhibition of cell viability
same,sensitivity of cell viability to treatment,[2],resistant to the treatment
same,inhibition of cell viability,786-O renal cancer cells [3],dose-dependent inhibition of cell viability
same,cell morphology,786-O renal cancer cells [4],altered morphology being elongated and stressed
same,activation of the Akt signaling pathway,[5],suppressed activation of the Akt signaling pathway in a dose-dependent manner
same,IC50,[6]; FIG. 23D middle,650 nM
same,effect on cell viability,[6]; listed as UCHL1 inhibitor,dramatic effects; also recorded: dramatic decrease in cell viability
same,effect on cell viability,"[7]; NB-1, FIG. 23D right",dramatic effects
same,IC50,[7]; neuroblastoma cell line NB1,1600 nM
CS(=N)(=O)CC[C@H](N)C(=O)O (stereo partly drawn) [L-Methionine sulfoximine],sensitivity of cell viability to treatment,[2],not sensitive to the treatment
same,response of cell viability to anti-GLUL treatment,skrc42.EV,responded to the anti-GLUL treatment
CC(C)n1nc(-c2ccc3oc(N)nc3c2)c2c(N)ncnc21 [TAK-228],response among the five kinase inhibitors (phosphorylation of downstream targeted substrates),[1],showed better responses
same,phosphorylation of signaling-related downstream substrates,[1],"reduced phosphorylation of the mTOR complex component, AKT1S1, and its downstream phospho-substrate target, EIF4EBP1"
CO[C@H]1C[C@@H]2CC[C@@H](C)[C@@](O)(O2)C(=O)C(=O)N2CCCC[C@H]2C(=O)O[C@H]([C@H](C)C[C@@H]2CC[C@@H](OCCO)[C@H](OC)C2)CC(=O)[C@H](C)/C=C(\C)[C@@H](O)[C@@H](OC)C(=O)[C@H](C)C[C@H](C)/C=C/C=C/C=C/1C [everolimus],phosphorylation of signaling-related downstream substrates,[1],minimal impact
same,therapeutic value / response in metastatic RCC,metastatic RCC,relatively poor response
COc1cc2ncnc(Nc3ccc(F)c(Cl)c3)c2cc1OCCCN1CCOCC1 [gefitinib],phosphorylation of signaling-related downstream substrates,[1],minimal impact
C#CCN(C)Cc1ccccc1 [pargyline],effect on cell viability,[6],no effect on cell viability; also recorded: did not affect
